Experiments:
[1] = test system: bird's-eye speedwell (VERPE); assay: Postemergence greenhouse trial, % visual injury on bird's-eye speedwell; assay type: in vivo, Veronica persica
How it was run: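 Herbicide rates g ae/ha, safener (cloquintocet-mexyl) rates g ai/ha; spray carrier 1.5% v/v crop oil concentrate, 187 L/ha, 2nd–3rd leaf stage. Rating: visual % injury at 20-22 d.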

pigweed (AMARE) = assay: Postemergence greenhouse trial, % visual injury on pigweed; assay type: in vivo, Amaranthus retroflexus; settings: for % visual injury, Ob / % visual injury, observed (Ob): AMARE
How it was run: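 Postemergence greenhouse spray (187 L/ha, 1.5% v/v Agri-dex in water, acetone/DMSO stocks) on plants at second–third true leaf stage, ~23/22 °C, 14 h photoperiod; herbicides in g ae/ha, safener cloquintocet-mexyl in g ai/ha. Visual injury 0–100% versus solvent-blank controls after 20–22 d; Colby's equation gave expected mixture effects.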

thistle (CIRAR) = assay: Postemergence greenhouse trial, % visual injury on thistle; assay type: in vivo, Cirsium arvense; settings: for % visual injury, Ob: CIRAR
How it was run: (§1)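 Plants at second or third true leaf stage, greenhouse-grown (14 h photoperiod, ~23/22° C.), sprayed postemergence with compounds alone or with safener cloquintocet-mexyl in 1.5% v/v Agri-dex crop oil at 187 L/ha. Visual injury scored 0–100% versus solvent-blank controls after 20-22 d; expected mixture effects by Colby's equation.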

winter rape (BRSNW) = assay: Postemergence greenhouse trial, % visual injury on winter rape; assay type: in vivo, Brassica napus; settings: for % visual injury, Ob: BRSNW
How it was run: as §1

[2] = compound 0 g/ha, CQC-m 4.375 g/ha
[3] = compound 0 g/ha, CQC-m 8.75 g/ha
[4] = compound 0 g/ha, CQC-m 17.5 g/ha

CCCCCC(C)OC(=O)COc1ccc(Cl)c2cccnc12 (stereo not drawn) [CQC-m, cloquintocet-mexyl, reference compound]
0%: % visual injury, Ob ([1]; VERPE, compound 0, CQC-m 17.5 g/ha) | % visual injury, Ob ([1]; VERPE, compound 0, CQC-m 35 g/ha) | % visual injury, Ob ([1]; VERPE, compound 0, CQC-m 70 g/ha) | % visual injury, Ob ([1]; VERPE, compound 0 g/ha, CQC-m 4.375 g/ha) | % visual injury, Ob ([1]; VERPE, compound 0 g/ha, CQC-m 8.75 g/ha) | % visual injury, Ob ([1]; VERPE, compound 0 g/ha, CQC-m 17.5 g/ha) | % visual injury, Ob ([1]; VERPE, compound 0 g/ha, CQC-m 35 g/ha) | % visual injury, Ob ([1]; VERPE, compound 0 g/ha, CQC-m 70 g/ha) | % visual injury, observed (Ob) ([1]; VERPE, compound 8 0 + CQC-m 4.375 g/ha) | % visual injury, observed (Ob) ([1]; VERPE, compound 8 0 + CQC-m 8.75 g/ha) | % visual injury, observed (Ob) ([1]; VERPE, compound 8 0 + CQC-m 17.5 g/ha) | % visual injury, observed (Ob) ([1]; VERPE, compound 8 0 + CQC-m 35 g/ha) | % visual injury, observed (Ob) ([1]; VERPE, compound 8 0 + CQC-m 70 g/ha) | % visual injury, Ob ([1]; alone, 4.375 g/ha) | % visual injury, Ob ([1]; alone, 8.75 g/ha) | % visual injury, Ob ([1]; alone, 17.5 g/ha) | % visual injury, Ob ([1]; alone, 35 g/ha) | % visual injury, Ob ([1]; alone, 70 g/ha) | % visual injury, Ob (pigweed (AMARE); 4.375 g/ha, applied alone) | % visual injury, Ob (pigweed (AMARE); 8.75 g/ha, applied alone) | % visual injury, Ob (pigweed (AMARE); 17.5 g/ha, applied alone) | % visual injury, Ob (pigweed (AMARE); 35 g/ha, applied alone) | % visual injury, Ob (pigweed (AMARE); 70 g/ha, applied alone) | % visual injury, Ob (pigweed (AMARE); compound 0, CQC-m 4.375 g/ha) | % visual injury, Ob (pigweed (AMARE); compound 0, CQC-m 8.75 g/ha) | % visual injury, Ob (pigweed (AMARE); compound 0, CQC-m 17.5 g/ha) | % visual injury, Ob (pigweed (AMARE); compound 0, CQC-m 35 g/ha) | % visual injury, Ob (pigweed (AMARE); compound 0, CQC-m 70 g/ha) | % visual injury, Ob (pigweed (AMARE); [2]) | % visual injury, Ob (pigweed (AMARE); [3]) | % visual injury, Ob (pigweed (AMARE); [4]) | % visual injury, Ob (pigweed (AMARE); compound 0 g/ha, CQC-m 35 g/ha) | % visual injury, Ob (pigweed (AMARE); compound 0 g/ha, CQC-m 70 g/ha) | % visual injury, observed (Ob) (pigweed (AMARE); safener alone 2.5 g/ha) | % visual injury, observed (Ob) (pigweed (AMARE); safener alone 5 g/ha) | % visual injury, observed (Ob) (pigweed (AMARE); safener alone 10 g/ha) | % visual injury, observed (Ob) (pigweed (AMARE); safener alone 20 g/ha) | pest or weed control at 4.375 g/ha (pigweed (AMARE); Amaranthus retroflexus, post-emergence, alone, 4.375 g/ha, read-out: % visual injury, Ob) | pest or weed control at 8.75 g/ha (pigweed (AMARE); Amaranthus retroflexus, post-emergence, alone, 8.75 g/ha, read-out: % visual injury, Ob) | pest or weed control at 17.5 g/ha (pigweed (AMARE); Amaranthus retroflexus, post-emergence, alone, 17.5 g/ha, read-out: % visual injury, Ob) | pest or weed control at 20 g/ha (pigweed (AMARE); Amaranthus retroflexus, post-emergence, alone, 20 g/ha, read-out: % visual injury, Ob) | pest or weed control at 35 g/ha (pigweed (AMARE); Amaranthus retroflexus, post-emergence, alone, 35 g/ha, read-out: % visual injury, Ob) | pest or weed control at 40 g/ha (pigweed (AMARE); Amaranthus retroflexus, post-emergence, alone, 40 g/ha, read-out: % visual injury, Ob) | pest or weed control at 70 g/ha (pigweed (AMARE); Amaranthus retroflexus, post-emergence, alone, 70 g/ha, read-out: % visual injury, Ob) | pest or weed control at 80 g/ha (pigweed (AMARE); Amaranthus retroflexus, post-emergence, alone, 80 g/ha, read-out: % visual injury, Ob) | % visual injury, Δ (pigweed (AMARE); alone, 35 g/ha) | % visual injury, Ob (thistle (CIRAR); 4.375 g/ha, applied alone) | % visual injury, Ob (thistle (CIRAR); 8.75 g/ha, applied alone) | % visual injury, Ob (thistle (CIRAR); 17.5 g/ha, applied alone) | % visual injury, Ob (thistle (CIRAR); 35 g/ha, applied alone) | % visual injury, Ob (thistle (CIRAR); 70 g/ha, applied alone) | % visual injury, Ob (thistle (CIRAR); compound 0, CQC-m 4.375 g/ha) | % visual injury, Ob (thistle (CIRAR); compound 0, CQC-m 8.75 g/ha) | % visual injury, Ob (thistle (CIRAR); compound 0, CQC-m 17.5 g/ha) | % visual injury, Ob (thistle (CIRAR); compound 0, CQC-m 35 g/ha) | % visual injury, Ob (thistle (CIRAR); compound 0, CQC-m 70 g/ha) | pest or weed control at 4.375 g/ha (thistle (CIRAR); Cirsium arvense, post-emergence, alone, 4.375 g/ha, read-out: % visual injury, Ob) | pest or weed control at 8.75 g/ha (thistle (CIRAR); Cirsium arvense, post-emergence, alone, 8.75 g/ha, read-out: % visual injury, Ob) | pest or weed control at 17.5 g/ha (thistle (CIRAR); Cirsium arvense, post-emergence, alone, 17.5 g/ha, read-out: % visual injury, Ob) | pest or weed control at 35 g/ha (thistle (CIRAR); Cirsium arvense, post-emergence, alone, 35 g/ha, read-out: % visual injury, Ob) | pest or weed control at 70 g/ha (thistle (CIRAR); Cirsium arvense, post-emergence, alone, 70 g/ha, read-out: % visual injury, Ob) | % visual injury, Ob (winter rape (BRSNW); 4.375 g/ha, applied alone) | % visual injury, Ob (winter rape (BRSNW); 8.75 g/ha, applied alone) | % visual injury, Ob (winter rape (BRSNW); 17.5 g/ha, applied alone) | % visual injury, Ob (winter rape (BRSNW); 35 g/ha, applied alone) | % visual injury, Ob (winter rape (BRSNW); 70 g/ha, applied alone) | % visual injury, Ob (winter rape (BRSNW); compound 0, CQC-m 4.375 g/ha) | % visual injury, Ob (winter rape (BRSNW); compound 0, CQC-m 8.75 g/ha) | % visual injury, Ob (winter rape (BRSNW); compound 0, CQC-m 17.5 g/ha) | % visual injury, Ob (winter rape (BRSNW); compound 0, CQC-m 35 g/ha) | % visual injury, Ob (winter rape (BRSNW); compound 0, CQC-m 70 g/ha) | % visual injury, Ob (winter rape (BRSNW); [2]) | % visual injury, Ob (winter rape (BRSNW); [3]) | % visual injury, Ob (winter rape (BRSNW); [4]) | % visual injury, Ob (winter rape (BRSNW); compound 0 g/ha, CQC-m 35 g/ha) | % visual injury, Ob (winter rape (BRSNW); compound 0 g/ha, CQC-m 70 g/ha) | plant injury at 4.375 g/ha (winter rape (BRSNW); Brassica napus, post-emergence, alone, 4.375 g/ha, read-out: % visual injury, Ob) | plant injury at 8.75 g/ha (winter rape (BRSNW); Brassica napus, post-emergence, alone, 8.75 g/ha, read-out: % visual injury, Ob) | plant injury at 17.5 g/ha (winter rape (BRSNW); Brassica napus, post-emergence, alone, 17.5 g/ha, read-out: % visual injury, Ob) | plant injury at 35 g/ha (winter rape (BRSNW); Brassica napus, post-emergence, alone, 35 g/ha, read-out: % visual injury, Ob) | plant injury at 70 g/ha (winter rape (BRSNW); Brassica napus, post-emergence, alone, 70 g/ha, read-out: % visual injury, Ob)

— patent publication US9763445B2, “Safened herbicidal compositions comprising a pyridine carboxylic acid herbicide” (Dow AgroSciences, LLC, priority 2014, dated 2017)
